# Experiments:
# [1] = molecular target: CDK9-CycT1 (Homo sapiens, UniProt P50750); test: In vitro kinase reaction with baculovirus-produced recombinant kinase (SignalChem); format: biochemical; parameters: purchased SignalChem; host or cells: baculovirus-produced; settings: 80 nM i-CDK9
# [2] = molecular target: T1, MTOR (Homo sapiens, UniProt P42345); test: KINOMEscan binding assay; settings: 1 µM i-CDK9; read-out: % Retention on Solid Support
# T1 construct: purchased DiscoveRx KINOMEscan
# Method in brief: (§1)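 Selectivity profiling used a competition-binding format directed at the kinase active site. The inhibitor was screened at 1 and 10 µM over a panel exceeding 400 kinases.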
# [3] = molecular target: T2, EPHA2 (Homo sapiens, UniProt P29317); test: KINOMEscan binding assay; settings: read-out: % Retention on Solid Support
# T2 construct: purchased DiscoveRx KINOMEscan
# T2 sequence (P29317 24-976): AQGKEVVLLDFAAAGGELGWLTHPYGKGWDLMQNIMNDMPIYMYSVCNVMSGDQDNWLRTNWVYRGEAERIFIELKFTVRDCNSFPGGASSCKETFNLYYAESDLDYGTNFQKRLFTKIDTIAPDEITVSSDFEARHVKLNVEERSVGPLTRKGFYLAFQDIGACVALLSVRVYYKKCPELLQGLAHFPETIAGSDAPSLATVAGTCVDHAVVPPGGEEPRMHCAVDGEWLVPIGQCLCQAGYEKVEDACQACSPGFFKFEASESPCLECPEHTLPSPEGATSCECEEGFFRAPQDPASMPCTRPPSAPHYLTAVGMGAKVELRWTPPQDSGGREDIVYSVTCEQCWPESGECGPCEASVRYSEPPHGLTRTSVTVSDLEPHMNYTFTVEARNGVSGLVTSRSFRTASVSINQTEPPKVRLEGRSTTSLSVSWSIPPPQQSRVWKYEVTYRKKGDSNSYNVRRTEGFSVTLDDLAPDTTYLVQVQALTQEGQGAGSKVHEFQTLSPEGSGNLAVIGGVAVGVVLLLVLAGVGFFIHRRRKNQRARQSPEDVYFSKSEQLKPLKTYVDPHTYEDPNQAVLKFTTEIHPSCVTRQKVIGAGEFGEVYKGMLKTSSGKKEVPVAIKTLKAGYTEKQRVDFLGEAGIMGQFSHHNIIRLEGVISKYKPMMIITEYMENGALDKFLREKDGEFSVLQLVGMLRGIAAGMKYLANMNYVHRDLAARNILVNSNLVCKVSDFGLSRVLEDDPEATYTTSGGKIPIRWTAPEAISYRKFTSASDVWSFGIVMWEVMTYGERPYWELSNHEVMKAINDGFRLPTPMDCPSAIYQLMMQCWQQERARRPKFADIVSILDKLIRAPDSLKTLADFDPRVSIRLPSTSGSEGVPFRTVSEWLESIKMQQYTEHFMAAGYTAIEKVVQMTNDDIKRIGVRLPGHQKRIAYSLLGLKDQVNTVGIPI
# Method in brief: as §1
# [4] = molecular target: T3, CDK2 (Homo sapiens, UniProt P24941); test: KINOMEscan binding assay
# T3 construct: purchased DiscoveRx KINOMEscan
# Method in brief: as §1
# [5] = molecular target: T4, TRKA (Homo sapiens, UniProt P04629); test: KINOMEscan binding assay; settings: read-out: % Retention on Solid Support
# T4 construct: purchased DiscoveRx KINOMEscan
# Method in brief: as §1
# [6] = molecular target: T5, RIOK1 (Homo sapiens, UniProt Q9BRS2); test: KINOMEscan binding assay; settings: read-out: % Retention on Solid Support
# T5 construct: purchased DiscoveRx KINOMEscan
# T5 sequence (Q9BRS2 whole entry): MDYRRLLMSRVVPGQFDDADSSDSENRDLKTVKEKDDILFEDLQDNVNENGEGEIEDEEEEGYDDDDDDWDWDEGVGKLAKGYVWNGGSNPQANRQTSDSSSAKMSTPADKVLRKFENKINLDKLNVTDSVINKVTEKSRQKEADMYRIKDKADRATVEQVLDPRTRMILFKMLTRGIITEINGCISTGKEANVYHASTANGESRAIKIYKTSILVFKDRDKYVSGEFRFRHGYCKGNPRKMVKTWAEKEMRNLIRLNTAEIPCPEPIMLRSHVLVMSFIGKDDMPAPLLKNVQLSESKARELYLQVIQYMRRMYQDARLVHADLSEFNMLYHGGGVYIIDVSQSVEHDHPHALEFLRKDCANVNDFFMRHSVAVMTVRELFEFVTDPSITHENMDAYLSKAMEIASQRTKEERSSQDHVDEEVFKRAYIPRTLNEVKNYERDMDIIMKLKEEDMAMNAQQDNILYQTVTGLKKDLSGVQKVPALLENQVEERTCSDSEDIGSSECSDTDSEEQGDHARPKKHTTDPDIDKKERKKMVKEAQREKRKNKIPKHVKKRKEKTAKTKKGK
# Method in brief: as §1
# [7] = molecular target: T6, EPHA7 (Homo sapiens, UniProt Q15375); test: KINOMEscan binding assay; settings: read-out: % Retention on Solid Support
# T6 construct: purchased DiscoveRx KINOMEscan
# T6 sequence (Q15375 28-998): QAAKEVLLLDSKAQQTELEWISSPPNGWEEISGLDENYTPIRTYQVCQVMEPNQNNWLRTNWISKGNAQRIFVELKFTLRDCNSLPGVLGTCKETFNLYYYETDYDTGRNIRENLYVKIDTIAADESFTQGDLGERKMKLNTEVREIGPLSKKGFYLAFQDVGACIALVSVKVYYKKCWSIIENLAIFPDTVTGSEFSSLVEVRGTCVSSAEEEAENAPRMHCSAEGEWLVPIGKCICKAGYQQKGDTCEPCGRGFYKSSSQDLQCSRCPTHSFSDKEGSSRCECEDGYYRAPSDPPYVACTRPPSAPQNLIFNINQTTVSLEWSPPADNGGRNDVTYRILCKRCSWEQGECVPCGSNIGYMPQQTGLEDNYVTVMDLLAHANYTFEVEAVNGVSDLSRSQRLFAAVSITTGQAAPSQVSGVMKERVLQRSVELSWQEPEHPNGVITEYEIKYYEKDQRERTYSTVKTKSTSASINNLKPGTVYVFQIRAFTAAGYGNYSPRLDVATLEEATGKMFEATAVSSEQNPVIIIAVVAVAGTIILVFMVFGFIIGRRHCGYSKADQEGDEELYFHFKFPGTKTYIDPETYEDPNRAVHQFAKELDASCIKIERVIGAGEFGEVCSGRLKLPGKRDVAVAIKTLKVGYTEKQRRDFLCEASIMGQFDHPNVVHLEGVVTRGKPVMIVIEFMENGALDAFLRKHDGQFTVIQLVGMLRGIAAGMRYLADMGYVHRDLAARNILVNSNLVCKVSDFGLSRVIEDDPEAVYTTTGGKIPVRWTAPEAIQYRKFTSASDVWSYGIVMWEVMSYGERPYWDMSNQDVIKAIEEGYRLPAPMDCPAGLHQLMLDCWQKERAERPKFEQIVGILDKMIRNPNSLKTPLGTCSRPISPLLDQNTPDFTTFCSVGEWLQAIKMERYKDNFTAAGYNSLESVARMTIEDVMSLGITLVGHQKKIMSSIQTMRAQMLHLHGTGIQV
# Method in brief: as §1
# [8] = molecular target: T7, PCTK2 (Homo sapiens, UniProt Q00537); test: KINOMEscan binding assay; settings: read-out: % Retention on Solid Support
# T7 construct: purchased DiscoveRx KINOMEscan
# T7 sequence (Q00537 whole entry): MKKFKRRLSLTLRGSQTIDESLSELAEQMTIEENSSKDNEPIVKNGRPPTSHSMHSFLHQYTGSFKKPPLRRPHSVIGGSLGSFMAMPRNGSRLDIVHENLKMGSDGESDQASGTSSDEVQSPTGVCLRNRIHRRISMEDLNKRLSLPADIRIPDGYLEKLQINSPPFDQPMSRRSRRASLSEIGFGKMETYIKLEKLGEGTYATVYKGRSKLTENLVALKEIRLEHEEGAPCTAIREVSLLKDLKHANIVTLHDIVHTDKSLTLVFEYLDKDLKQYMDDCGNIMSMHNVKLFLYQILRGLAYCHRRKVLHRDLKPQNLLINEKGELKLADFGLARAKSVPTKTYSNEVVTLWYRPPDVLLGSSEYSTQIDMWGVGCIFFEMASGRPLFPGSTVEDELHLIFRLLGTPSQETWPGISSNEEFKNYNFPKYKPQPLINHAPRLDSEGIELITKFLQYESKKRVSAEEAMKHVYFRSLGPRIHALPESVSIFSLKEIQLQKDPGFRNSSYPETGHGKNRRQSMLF
# Method in brief: as §1
# [9] = molecular target: T8, SLK (Homo sapiens, UniProt Q9H2G2); test: KINOMEscan binding assay; settings: read-out: % Retention on Solid Support
# T8 construct: purchased DiscoveRx KINOMEscan
# Method in brief: as §1
# [10] = molecular target: T9, ABL1(E255K)-nonphosphorylated (Homo sapiens, UniProt P00519, E255K); test: KINOMEscan binding assay; settings: 10 µM i-CDK9; read-out: % Retention on Solid Support
# T9 construct: purchased DiscoveRx KINOMEscan
# Method in brief: as §1
# [11] = molecular target: T10, PCTK1 (Homo sapiens, UniProt Q00536); test: KINOMEscan binding assay; settings: read-out: % Retention on Solid Support
# T10 construct: purchased DiscoveRx KINOMEscan
# Method in brief: as §1
# [12] = molecular target: T11, TAOK1 (Homo sapiens, UniProt Q7L7X3); test: KINOMEscan binding assay; settings: read-out: % Retention on Solid Support
# T11 construct: purchased DiscoveRx KINOMEscan
# T11 sequence (Q7L7X3 whole entry): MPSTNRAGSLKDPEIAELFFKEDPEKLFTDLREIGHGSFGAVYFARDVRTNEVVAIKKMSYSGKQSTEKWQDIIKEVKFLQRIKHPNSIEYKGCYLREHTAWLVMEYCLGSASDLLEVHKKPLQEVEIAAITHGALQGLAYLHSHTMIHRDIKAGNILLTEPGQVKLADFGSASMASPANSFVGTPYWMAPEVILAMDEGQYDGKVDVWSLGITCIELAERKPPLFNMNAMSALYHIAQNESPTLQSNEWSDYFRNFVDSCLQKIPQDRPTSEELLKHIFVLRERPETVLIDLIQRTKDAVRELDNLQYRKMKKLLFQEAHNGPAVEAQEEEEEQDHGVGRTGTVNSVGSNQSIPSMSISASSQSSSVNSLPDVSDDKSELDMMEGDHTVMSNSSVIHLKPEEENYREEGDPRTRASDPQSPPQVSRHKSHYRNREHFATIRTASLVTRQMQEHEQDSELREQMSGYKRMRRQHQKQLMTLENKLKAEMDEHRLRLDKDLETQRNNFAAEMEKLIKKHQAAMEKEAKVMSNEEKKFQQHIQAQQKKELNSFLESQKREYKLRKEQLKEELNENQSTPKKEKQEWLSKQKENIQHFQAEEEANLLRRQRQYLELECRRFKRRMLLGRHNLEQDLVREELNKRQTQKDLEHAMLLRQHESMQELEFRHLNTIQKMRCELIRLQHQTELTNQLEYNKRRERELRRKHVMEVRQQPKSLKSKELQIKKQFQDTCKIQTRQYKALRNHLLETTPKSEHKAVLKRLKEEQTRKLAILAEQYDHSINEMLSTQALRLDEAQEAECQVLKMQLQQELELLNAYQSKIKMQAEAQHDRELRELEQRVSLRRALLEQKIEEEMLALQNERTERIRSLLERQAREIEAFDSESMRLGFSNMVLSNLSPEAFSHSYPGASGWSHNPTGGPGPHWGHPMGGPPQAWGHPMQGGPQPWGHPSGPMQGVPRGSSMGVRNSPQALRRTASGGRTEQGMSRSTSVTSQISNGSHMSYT
# Method in brief: as §1
# [13] = molecular target: T12, FES (Homo sapiens, UniProt P07332); test: KINOMEscan binding assay; settings: read-out: % Retention on Solid Support
# T12 construct: purchased DiscoveRx KINOMEscan
# Method in brief: as §1
# [14] = molecular target: T13, ABL1(M351T)-nonphosphorylated (Homo sapiens, UniProt P00519, M351T); test: KINOMEscan binding assay; settings: 10 µM i-CDK9; read-out: % Retention on Solid Support
# T13 construct: purchased DiscoveRx KINOMEscan
# Method in brief: as §1
# [15] = molecular target: T14, EGFR(S752-I759del) (Homo sapiens, UniProt P00533, DEL752-759); test: KINOMEscan binding assay
# T14 construct: purchased DiscoveRx KINOMEscan
# Method in brief: as §1
# [16] = molecular target: T15, PIM1 (Homo sapiens, UniProt P11309); test: KINOMEscan binding assay; settings: read-out: % Retention on Solid Support
# T15 construct: purchased DiscoveRx KINOMEscan
# Method in brief: as §1
# [17] = molecular target: T16, BMPR1A (Homo sapiens, UniProt P36894); test: KINOMEscan binding assay; settings: read-out: % Retention on Solid Support
# T16 construct: purchased DiscoveRx KINOMEscan
# T16 sequence (P36894 24-532): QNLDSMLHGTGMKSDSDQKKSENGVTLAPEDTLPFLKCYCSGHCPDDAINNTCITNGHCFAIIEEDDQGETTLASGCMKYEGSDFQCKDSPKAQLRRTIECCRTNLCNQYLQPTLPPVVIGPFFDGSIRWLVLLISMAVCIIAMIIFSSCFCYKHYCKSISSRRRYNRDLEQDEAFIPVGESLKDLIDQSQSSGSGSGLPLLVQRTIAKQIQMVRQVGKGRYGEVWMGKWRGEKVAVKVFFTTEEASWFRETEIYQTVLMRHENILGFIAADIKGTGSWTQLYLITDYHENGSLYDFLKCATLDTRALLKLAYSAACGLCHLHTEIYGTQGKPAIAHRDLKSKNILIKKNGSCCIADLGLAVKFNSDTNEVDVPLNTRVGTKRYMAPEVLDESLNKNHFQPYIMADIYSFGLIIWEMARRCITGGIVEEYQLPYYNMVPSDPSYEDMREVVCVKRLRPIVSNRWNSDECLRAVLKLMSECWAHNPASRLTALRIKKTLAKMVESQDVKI
# Method in brief: as §1
# [18] = molecular target: T17, TGFBR1 (Homo sapiens, UniProt P36897); test: KINOMEscan binding assay; settings: read-out: % Retention on Solid Support
# T17 construct: purchased DiscoveRx KINOMEscan
# T17 sequence (P36897 34-503): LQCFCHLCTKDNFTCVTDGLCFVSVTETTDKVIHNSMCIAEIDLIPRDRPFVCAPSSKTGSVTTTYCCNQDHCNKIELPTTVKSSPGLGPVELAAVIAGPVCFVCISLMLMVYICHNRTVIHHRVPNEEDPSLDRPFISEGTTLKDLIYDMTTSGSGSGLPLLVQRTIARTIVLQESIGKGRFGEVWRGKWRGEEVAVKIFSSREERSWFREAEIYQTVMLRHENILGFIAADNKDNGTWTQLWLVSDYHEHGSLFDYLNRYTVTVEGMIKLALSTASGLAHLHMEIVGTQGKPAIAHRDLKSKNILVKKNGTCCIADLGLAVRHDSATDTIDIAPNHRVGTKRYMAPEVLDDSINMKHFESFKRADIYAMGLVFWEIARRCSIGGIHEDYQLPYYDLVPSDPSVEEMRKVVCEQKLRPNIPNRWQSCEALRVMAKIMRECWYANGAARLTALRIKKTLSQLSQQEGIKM
# Method in brief: as §1
# [19] = molecular target: T18, PCTK3 (Homo sapiens, UniProt Q07002); test: biochemical binding or enzymatic assay; settings: Ambit
# T18 construct: purchased DiscoveRx KINOMEscan
# Description: (§2) Finally, the selectivity profile of i-CDK9 toward other non-CDK kinases was also assessed using the KINOMEscan platform. […] Except for CLK4, for which no suitable assay was available, the rest of the kinases plus a selected group of others were re-examined for the concentration-dependent effect of i-CDK9 in either functional kinase assays or binding assays. […] Indeed, it has recently been reported that DYRK1A acts as a Pol II CTD Kinase at its target gene promoters ([Di Vona et al., 2015]).
# [20] = molecular target: T19, FGFR1 (Homo sapiens, UniProt P11362); test: biochemical binding or enzymatic assay; settings: Novartis
# T19 construct: purchased DiscoveRx KINOMEscan
# Description: as §2
# [21] = tested on: 7SK snRNP in HeLa-based F1C2 cells; test: CDK9-F co-immunoprecipitation: disruption of 7SK snRNP, formation of BRD4-P-TEFb; format: cell-based, human
# Description: A number of stress-inducing agents/conditions are known to cause the release of P-TEFb from 7SK snRNP, which serves as the principal reservoir of uncommitted P-TEFb activity in the nucleus (reviewed in [Zhou et al., 2012]). […] CDK9-F was stably expressed in the HeLa-based F1C2 cells ([Yang et al., 2001]) that were treated with a wide range of i-CDK9 concentrations for 8 hr.
# Just like the induction of MYC expression (Figure 3B), the disruption of 7SK snRNP and formation of BRD4-P-TEFb were highly sensitive to i-CDK9 and required as little as 0.1 μM of the drug (Figure 4A, compare lane 8 to lane 6). […] In a time course analysis, i-CDK9 (0.3 μM)-induced disruption of 7SK snRNP at a time point (1 hr) that was much earlier than that required to cause about 50% reduction in global pSer2 (8 hr; Figure 4—figure supplement 1).
# All Co-immunoprecipitation experiments were performed in NEs prepared from F1C2 cells that stably express CDK9-F or the parental HeLa cells transfected with the indicated cDNAs. The procedures have been described previously ([Lu et al., 2014]).
structure (smiles),measurement,setting,value
"N[C@H]1CC[C@H](Nc2cc(-c3cccc(NCc4cccc(F)c4)n3)c(Cl)cn2)CC1 [i-CDK9, N2′-(trans-4-aminocyclohexyl)-5′-chloro-N6-(3-fluorobenzyl)-2,4′-bipyridine-2′,6-diamine]",inhibition of Ser2 phosphorylation,[1],mostly inhibited
same,remaining binding at 1 µM,[2],100%
same,remaining binding at 1 µM,[3]; 1 µM i-CDK9,100%
same,remaining binding at 10 µM,[3]; 10 µM i-CDK9,100%
same,% Retention on Solid Support,[4]; 1 µM i-CDK9,85%
same,% Retention on Solid Support,[4]; 10 µM i-CDK9,19%
same,remaining binding at 1 µM,[5]; 1 µM i-CDK9,100%
same,remaining binding at 10 µM,[5]; 10 µM i-CDK9,89%
same,remaining binding at 1 µM,[6]; 1 µM i-CDK9,100%
same,remaining binding at 10 µM,[6]; 10 µM i-CDK9,57%
same,remaining binding at 1 µM,[7]; 1 µM i-CDK9,100%
same,remaining binding at 10 µM,[7]; 10 µM i-CDK9,96%
same,remaining binding at 1 µM,[8]; 1 µM i-CDK9,14%
same,remaining binding at 10 µM,[8]; 10 µM i-CDK9,0.05%
same,remaining binding at 1 µM,[9]; 1 µM i-CDK9,100%
same,remaining binding at 10 µM,[9]; 10 µM i-CDK9,100%
same,remaining binding at 10 µM,[10],100%
same,remaining binding at 1 µM,[11]; 1 µM i-CDK9,19%
same,remaining binding at 10 µM,[11]; 10 µM i-CDK9,0.85%
same,remaining binding at 1 µM,[12]; 1 µM i-CDK9,51%
same,remaining binding at 10 µM,[12]; 10 µM i-CDK9,4%
same,remaining binding at 1 µM,[13]; 1 µM i-CDK9,97%
same,remaining binding at 10 µM,[13]; 10 µM i-CDK9,90%
same,remaining binding at 10 µM,[14],100%
same,% Retention on Solid Support,[15]; 1 µM i-CDK9,77%
same,% Retention on Solid Support,[15]; 10 µM i-CDK9,53%
same,remaining binding at 1 µM,[16]; 1 µM i-CDK9,100%
same,remaining binding at 10 µM,[16]; 10 µM i-CDK9,23%
same,remaining binding at 1 µM,[17]; 1 µM i-CDK9,63%
same,remaining binding at 10 µM,[17]; 10 µM i-CDK9,100%
same,remaining binding at 1 µM,[18]; 1 µM i-CDK9,95%
same,remaining binding at 10 µM,[18]; 10 µM i-CDK9,100%
same,IC50,[19],> 0.45 µM
same,IC50,[20],> 10 µM
same,time point of disruption of 7SK snRNP,[21]; 0.3 μM,1 h
same,concentration required for disruption of 7SK snRNP and formation of BRD4-P-TEFb,[21]; 8 hr,0.1 µM
